Test results taken from US20030198696A1, “Pesticide composition of plant oils and fish oils” (priority 2000, published 2003).

Tested on: citrus greasy spot
Assay: Test for citrus greasy spot control
Assay type: in vivo
Details: treatment amounts as printed in 250 gallons of water per acre, untreated control 0.510
Description: Test for citrus greasy spot control. Treatments consisted of the following amounts of compounds in 250 gallons of water per acre: […]

Copper
Disease Incidence: 0.050
